From patent publication US12648928B2, “Intervention strategy for prevention or treatment of diabetes mellitus, autoimmune disease, inflammatory disease or cardiovascular disease” (ACADEMISCH MEDISCH CENTRUM, priority 2020, dated 2026)

Columns and labels:
[1] = system: human (Jurkat) CD4 T cells; test: Seahorse XF mitochondrial metabolism (OCR), Jurkat CD4 T cells; type: cell-based; details: 100 uM; human (Jurkat) CD4 T cells (FIG. 22)
Procedure: (§1) Finally, it was uncovered that 6-BT also impacts the intracellular metabolism.
(§2) OCR=oxygen consumption rate, used as a proxy of cellular utilization of mitochondrial oxidative phosphorylation. OCR was measured using a Seahorse XF Analyzer Uchimura T., The Innate Immune Sensor NLRC3 Acts as a Rheostat that Fine-Tunes T Cell Responses in Infection and Autoimmunity. Immunity 2019; Chou, AIM2 in regulatory T cells restrains autoimmune diseases, Nature 2021.

murine CD4 T cells = test: Seahorse XF mitochondrial metabolism (OCR), murine CD4 T cells; type: cell-based; details: 100 uM; murine CD4 T cells (FIG. 22)
Procedure: as §1, §2

INS1E beta cells = test: Seahorse XF intracellular metabolism, INS1E beta cells; type: cell-based, rat
Source text: Lastly, it was investigated whether 6-BT may influence the mitochondrial metabolism of beta cells, which rely on ATP and mitochondrial metabolite production for insulin exocytosis. […] Intracellular metabolism measured using a Seahorse XF Analyzer Uchimura T., The Innate Immune Sensor NLRC3 Acts as a Rheostat that Fine-Tunes T Cell Responses in Infection and Autoimmunity.

[2] = system: pro-inflammatory M1 macrophages; test: Seahorse XF intracellular metabolism, M1 macrophages; type: cell-based; details: M1 macrophages differentiated in presence of LPS and IFNgamma (FIG. 23)
Source text: Intracellular metabolism measured using a Seahorse XF Analyzer, Uchimura T., The Innate Immune Sensor NLRC3 Acts as a Rheostat that Fine-Tunes T Cell Responses in Infection and Autoimmunity. Immunity 2019; Chou, AIM2 in regulatory T cells restrains autoimmune diseases, nature 2021.

NF-kB pathway = test: Phosphorylated p65 subunit after PMA/ionomycin activation, Jurkat cells; type: cell-based; details: human Jurkat cells; PMA 50 μg/ml and ionomycin 1 μg/ml; 5-10 minutes after activation (FIG. 18)
Procedure: Seeking for the molecular mechanism(s) underlying 6-BT actions, 6-BT impact on the activation of the NF-kB pathway, a central pathway in all inflammatory diseases (beyond autoimmunity) was checked first. […] Upon T cell activation with PMA ([…]) and ionomycin (1 μg/ml), 6-BT could inhibit, at very early time-points (5-10 minutes after activation), the NF-kB signaling. This effect was found in both murine and human (Jurkat cells) CD4 T cells.

[3] = system: murine bone marrow-isolated monocytes or bone marrow-derived macrophages; test: In vitro stimulation of murine monocytes / bone marrow-derived macrophages, cytokine ELISA; type: cell-based
Procedure: Naïve bone marrow monocytes were isolated from BM cells. Briefly, hind legs were removed from 3 mice, cleaned from surrounding muscles. The femur and tibia bones were trimmed at their extremities, the BM content was flushed out with cold PBS using a 10 ml syringe and a 25G needle and filtered through a 40 μm strainer. Red blood cells (RBC) were lysed with 1× RBC lysis buffer (Biolegend) for 5 min. on ice. CD11b+ monocytes were further purified by positive selection using a cocktail of CD11 b magnetic beads (Miltenyi Biotec, #130-049-601) and magnetizing MS columns (Miltenyi Biote) according to the manufacturer's instructions. Subsequently, monocytes were seeded in F-bottom 96-well plates at 1×10^5 cells per well in RPMI1640 supplemented with 10% heat-inactivated fetal bovine serum, penicillin (100 U/ml), streptomycin (100 μg/ml), L-glutamine (2 mM) […]. Monocytes were activated with 10 μg/ml LPS (Sigma-Aldrich) and subjected to treatment with 6-BT (10/100 μM), LysoPC(20:0) (10/50 μM), MA-GPC (10/50/100 μM), or appropriate vehicle. Cells were kept in a final volume of 200 μl/well for 24 hours, after which supernatant was harvested and stored at −80° C.
Bone marrow-derived macrophages (BMDM) and DC (BMDC) were obtained by differentiating freshly isolated BM cells from femur and tibia bones (as above described) of C57/B16 mice (N=3 per experiment). For BMDM, BM cells were seeded at 3×10^6 cells per 10 cm dish and cultured for 7 days in 12 ml RPMI1640 medium with 20% fetal bovine serum, 30% L-929 cell conditioned media, as source of murine macrophage colony-stimulating factor (M-CSF). For BMDC, BM cells were seeded at 0.5×10^6/ml cells in 25 ml in 10 cm dishes and cultured for 7 days in presence of GM-CSF in 5% FBS-RPMI1640 medium. After differentiation, BMDM/DCs were harvested, counted and seeded at a density of 1×10^5 cells per well in a F-bottom 96-well plate and left to adhere for 20 hours before experiments were performed. Macrophages were activated with 10 μg/ml polyinosinic-polycytidylic acid poly(I.C) (InvivoGen) for 24 hours in presence or not of 6-BT (10/100 μM), LysoPC(20:0) (10/50 μM), or MA-GPC (10/50/100 μM) in a final volume of 200 μl/well. At the end of the assay, supernatant was harvested and stored at −80° C.
Specific ELISAs (R&D Systems) were utilized to measure the concentration of TNFα, IFNβ, and IFNγ in cell supernatant of murine monocytes, macrophages ad T cells, respectively, according to the manufacturer's instructions. The concentration of insulin after 24-hour treatment with metabolites or after GSIS were determined using Rat insulin ELISA (Mercodia) according to the manufacturer's instructions. GSIS was calculated by subtracting the concentration of insulin at 1 mM glucose to the insulin rate at 22 mM glucose.
Here, murine bone marrow-isolated monocytes (Christ A., Western Diet Triggers NLRP3-Dependent Innate Immune Reprogramming. Cell 2018) or bone marrow-derived macrophages (Swanson K V, A noncanonical function of cGAMP in inflammasome priming and activation. JEM 2017) were exposed for 24 hours to the indicated concentrations of 6-BT (10-100 μM) in presence or not of 10 μg/ml LPS, 10 μg/ml P3C or 10 μg/ml poly(I.C).

## N[C@@H](Cc1c[nH]c2cc(Br)ccc12)C(=O)O [6-BT, 6-bromotryptophan]
[1]
  mitochondrial metabolism (OCR): promotes the mitochondrial metabolism
Murine CD4 T cells
  mitochondrial metabolism (OCR): promotes the mitochondrial metabolism
INS1E beta cells; INS1E beta cells (FIG. 24)
  mitochondria metabolism at steady-state: increased mitochondria metabolism
INS1E beta cells; INS1E beta cells, 25 mM glucose (FIG. 24)
  mitochondria metabolism under hyperglycemia: increased mitochondria metabolism
[2]
  glycolytic flux: without affecting the glycolytic flux
  mitochondrial metabolism: could enhance the mitochondrial metabolism
NF-kB pathway
  NF-kB signaling (phosphorylated p65 subunit): could inhibit
[3]; 10-100 μM, 24 hours, 10 μg/ml LPS, ELISA (FIG. 14)
  secretion of TNFα upon TLR4 engagement: can inhibit the secretion
[3]; 10-100 μM, 24 hours, 10 μg/ml P3C, ELISA (FIG. 14)
  secretion of TNFα upon TLR2 engagement: can inhibit the secretion
[3]; 10-100 μM, 24 hours, 10 μg/ml poly(I.C), ELISA (FIG. 14)
  secretion of IFNbeta upon TLR3 activation: can inhibit the secretion
[3]; PolyI:C for 24 hours, TLR3 stimulation (FIG. 9)
  type 1 IFN secretion: impair type 1 IFN secretion
[3]; monocytes isolated from murine bone marrow, 6-BT vs tryptophan
  anti-inflammatory effects on monocytes: anti-inflammatory effects are specific for the 6-bromotryptophan molecule
[3]; murine monocytes CD11b+ activated with LPS (10 μg/ml) for 24 hours, TLR4 stimulation (FIG. 8)
  cytokine secretion by monocytes: halt cytokine secretion
